Test [1] deals with HCT-116. In words: Cell cycle arrest in human HCT116 cells assessed as decrease in number of cells at S phase at 20 and 30 uM after 20 hrs by propidium-iodide staining based flow cytometry. The format is functional. (In general: A flow cytometer gives signals particle by particle.)
The test system of test [2] is HCT-116. Put plainly: Decrease in mitotic index in human HCT116 cells after 20 and 24 hrs by flow cytometry. The format is functional, cell-based.
In test [3] the test system is HCT-116. Put plainly: Cell cycle arrest in human HCT116 cells assessed as decrease in number of cells at G0/G1 phase at 20 and 30 uM after 20 hrs by propidium-iodide staining based flow cytometry. It counts as functional.
In test [4] the test system is HCT-116. Put plainly: Cell cycle arrest in human HCT116 cells assessed as increase in number of cells at G2/M phase at 20 and 30 uM after 20 hrs by propidium-iodide staining based flow cytometry. The format is functional.
In test [5] the test system is HCT-116. Put plainly: Decrease in mitotic index in human HCT116 cells at 30 and 50 uM by flow cytometry. The following applies: TDE = time-dependent effect. It counts as functional, cell-based.
Test [6] relates to HCT-116. Put plainly: Anticancer activity against human HCT116 cells assessed as growth inhibition at 50 uM by CCK-8 assay. The format is functional. A general note: Tetrazolium dyes change colour on reduction, which living cells bring about.
Test [7] concerns HCT-116. In words: Induction of apoptosis in human HCT116 cells at 30 uM after 30 hrs by annexin-V/7-AAD staining based flow cytometry. The format is functional.
Test [8] deals with HCT-116. In words: Induction of DNA damage in human HCT116 cells at G0/G1 phase at 20 and 30 uM after 24 hrs by gamma-H2AX-staining based-flow cytometry. The format is functional, cell-based.
The test system of test [9] is HCT-116. Put plainly: Anticancer activity against human HCT116 cells assessed as growth inhibition by CCK-8 assay. The format is functional, cell-based.
Test [10] has as its system HCT-116. In words: Induction of DNA damage in human HCT116 cells at G0/G1 phase at 100 nM after 24 hrs by gamma-H2AX-staining based-flow cytometry. The format is functional, cell-based.
In test [11] the test system is HCT-116. In words: Decrease in mitotic index in human HCT116 cells at 100 nM after 20 and 24 hrs by flow cytometry. It counts as functional, cell-based.
Test [12] has as its system HCT-116. In words: Increase in mitotic index in human HCT116 cells at 20 nM after 20 and 24 hrs by flow cytometry. It counts as functional, cell-based.
Test [13] deals with HCT-116. Put plainly: Induction of DNA damage in human HCT116 cells at G0/G1 phase at 20 nM after 24 hrs by gamma-H2AX-staining based-flow cytometry. It counts as functional, cell-based.
The test system of test [14] is HCT-116. Put plainly: Induction of DNA damage in human HCT116 cells at G0/G1 phase at 30 uM after 24 hrs by gamma-H2AX-staining based-flow cytometry. It counts as functional, cell-based.

The structures appear in SMILES notation. pIC50: −log10 of the molar value. Calls of active or inactive are those of the source. No cut-off for these calls is given here.

By inhibition is commonly meant how much of the control response was suppressed. As a reminder, the pIC50 is the IC50 on a negative log10 scale, so that one unit is a factor of ten. For `C[C@H](NC(=O)OC(C)(C)C)c1nc(-c2nc(-c3nc(C(N)=O)cs3)cs2)cs1`, the outcome in the test on HCT-116 [1], in the test on HCT-116 [3], in the test on HCT-116 [4] and in the test with HCT-116 [8] was Active. Besides, the inhibition result is “Dose-dependent effect” with HCT-116 [2] and “tde” in the test on HCT-116 [5]. Moreover, the inhibition at 50 µM in the test with HCT-116 [6] came to 70%. Further, in the test on HCT-116 [7], the Activity worked out at 60%. Also, the pIC50 with HCT-116 [9] is 5.12.
With `C[C@@H](NC(=O)OC(C)(C)C)c1nc(-c2nc(-c3nc(C(N)=S)cs3)cs2)cs1`, the inhibition at 50 µM in the test with HCT-116 [6] stood at 70%. Moreover, in the test on HCT-116 [9], the pIC50 was 4.34.
Consider `CCOC(=O)c1csc(-c2csc(-c3csc([C@@H](C)NC(=O)OC(C)(C)C)n3)n2)n1`, for which the inhibition entry in the test on HCT-116 [6] is “Active”.
As to `COc1cccc2c1C(=O)c1c(O)c3c(c(O)c1C2=O)C[C@@](O)(C(=O)CO)C[C@@H]3O[C@H]1C[C@H](N)[C@H](O)[C@H](C)O1`, the outcome with HCT-116 [10] was Active. The inhibition entry in the test on HCT-116 [11] was “Active”.
For `CCOC(=O)c1csc(-c2csc(-c3csc([C@H](C)NC(=O)OC(C)(C)C)n3)n2)n1`, in the test with HCT-116 [6], the inhibition entry was “Active”.
With `C[C@H](NC(=O)OC(C)(C)C)c1nc(-c2nc(-c3nc(C(N)=S)cs3)cs2)cs1`, the inhibition at 50 µM with HCT-116 [6] turned out to be 70%. The pIC50 in the test on HCT-116 [9] is 4.42.
With `CC(=O)O[C@H]1C(=O)[C@@]2(C)[C@H]([C@H](OC(=O)c3ccccc3)[C@]3(O)C[C@H](OC(=O)[C@H](O)[C@@H](NC(=O)c4ccccc4)c4ccccc4)C(C)=C1C3(C)C)[C@]1(OC(C)=O)CO[C@@H]1C[C@@H]2O`, the result in the test on HCT-116 [12] and with HCT-116 [13] was Active.
Turning to `C[C@@H](NC(=O)OC(C)(C)C)c1nc(-c2nc(-c3nc(C(N)=O)cs3)cs2)cs1`, in the test on HCT-116 [6], the inhibition at 50 µM came out at 70%. This compound displayed an Activity in the test on HCT-116 [7] of 30%. Further, the result with HCT-116 [14] was Active. For the same compound, the pIC50 with HCT-116 [9] was 4.65.

Source of the values: ChEMBL document CHEMBL3632493, “Design, synthesis and anticancer mechanistic studies of linked azoles” (Medchemcomm, 2015).
